Laboratory results taken from US9187472B2 (AbbVie Inc., priority 2012, dated 2015).

Assays:
PC3 cells = assay: NAMPT Cell Proliferation Assay; assay type: cell-based; details: Homo sapiens, PC-3, 120 h, 5 days incubation, cell viability by Cell Titer Glo
In short: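 Proliferation of PC3 cells treated 5 days with a 10-fold compound series (top 10 μM) was quantified by Cell Titer Glo luminescence; IC50s were fitted from percent inhibition.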

[1] = target: NAMPT (human, recombinant, C-terminally His-tagged) (Homo sapiens, UniProt P43490); assay: Time-Resolved Fluorescence Resonance Energy Transfer (TR-FRET) Binding Assay of NAMPT; details: without substrates; 6.8 nM NAMPT, 200 nM probe, 3 hours equilibration
Chain of NAMPT (human, recombinant, C-terminally His-tagged) (P43490 whole entry): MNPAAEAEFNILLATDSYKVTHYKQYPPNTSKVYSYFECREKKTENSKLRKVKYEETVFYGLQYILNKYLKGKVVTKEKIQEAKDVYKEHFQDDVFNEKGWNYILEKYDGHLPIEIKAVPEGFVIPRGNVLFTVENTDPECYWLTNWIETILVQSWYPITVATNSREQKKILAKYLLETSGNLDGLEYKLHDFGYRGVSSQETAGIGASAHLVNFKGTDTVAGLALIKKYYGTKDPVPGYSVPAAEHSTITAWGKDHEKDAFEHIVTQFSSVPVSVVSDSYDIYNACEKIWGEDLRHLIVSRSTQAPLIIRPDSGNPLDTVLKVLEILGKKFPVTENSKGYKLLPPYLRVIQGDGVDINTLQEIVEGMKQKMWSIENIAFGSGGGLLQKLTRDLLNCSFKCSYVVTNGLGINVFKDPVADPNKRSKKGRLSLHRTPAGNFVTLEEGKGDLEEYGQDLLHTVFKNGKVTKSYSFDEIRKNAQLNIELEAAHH
In short: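 Competitive binding against an Oregon Green 488 tracer (200 nM), 6.8 nM His-tagged enzyme, 1 nM Tb antibody, 2% DMSO, 3 h at RT. IC50 derived from TR-FRET ratios.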

NAMPT = NAMPT (Homo sapiens, UniProt P43490); assay: TR-FRET Binding Assay of NAMPT with PRPP; details: with 200 μM PRPP and 2.5 mM ATP; 2 nM NAMPT, 2 nM probe, 16 hours equilibration
Chain of NAMPT (P43490 whole entry): as above
In short: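 Read-out is TR-FRET after a 16 h equilibration allowing possible compound modification by the enzyme. Final mix: 2 nM NAMPT, 2 nM probe, 1 nM Tb-anti-His antibody, 200 μM PRPP, 2.5 mM ATP, 2% DMSO.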

Row | IC50 (PC3 cells) [nM] | IC50 [1] [nM] | IC50 (NAMPT) [nM] | SMILES
1 | 29.5 | 306 | 0.169 | O=C(NCc1ccn2ccnc2c1)c1ccc(C2CCN(C(=O)[C@H]3CCOC3)CC2)cc1 [Example 308, N-(imidazo[1,2-a]pyridin-7-ylmethyl)-4-{1-[(3S)-tetrahydrofuran-3-ylcarbonyl]piperidin-4-yl}benzamide]
2 | 64.4 | 200 | 0.248 | O=C(NCc1ccn2ccnc2c1)Nc1ccc(OC2CN(C(=O)C3CCOCC3)C2)cc1 [Example 433, 1-(imidazo[1,2-a]pyridin-7-ylmethyl)-3-(4-{[1-(tetrahydro-2H-pyran-4-ylcarbonyl)azetidin-3-yl]oxy}phenyl)urea]
3 | 950 | 1660 | 0.453 | CC(C)OCC(=O)Nc1ccc(C(=O)NCc2ccn3ccnc3c2)cc1 [Example 211, N-(imidazo[1,2-a]pyridin-7-ylmethyl)-4-{[(propan-2-yloxy)acetyl]amino}benzamide]
4 | 17.9 | 309 | 0.169 | O=C(NCc1ccn2ccnc2c1)c1ccc(C2CCN(C(=O)c3ccccn3)CC2)cc1 [Example 498, N-(imidazo[1,2-a]pyridin-7-ylmethyl)-4-[1-(pyridin-2-ylcarbonyl)piperidin-4-yl]benzamide]
5 | 116 | 583 | 0.346 | O=C(NCc1ccn2ccnc2c1)Nc1ccc(O[C@@H]2CCN(C(=O)C3CCOCC3)C2)cc1 [Example 333, 1-(imidazo[1,2-a]pyridin-7-ylmethyl)-3-(4-{[(3R)-1-(tetrahydro-2H-pyran-4-ylcarbonyl)pyrrolidin-3-yl]oxy}phenyl)urea]
6 | 52.9 | 333 | 0.253 | O=C(NCc1ccn2ccnc2c1)c1ccc(C2CCN(C(=O)C3CC3)CC2)cc1 [Example 531, 4-[1-(cyclopropylcarbonyl)piperidin-4-yl]-N-(imidazo[1,2-a]pyridin-7-ylmethyl)benzamide]
7 | 6140 | 1640 | 0.817 | O=C(Nc1ccc(NC(=O)C2COCCO2)cc1)Nc1ccc2nccn2c1 (stereo not drawn) [Example 50]
8 | 30.5 | 253 | 0.355 | CCCC(=O)N1CCC(c2ccc(C(=O)NCc3ccn4ccnc4c3)cc2)CC1 [Example 505, 4-(1-butanoylpiperidin-4-yl)-N-(imidazo[1,2-a]pyridin-7-ylmethyl)benzamide]
9 | 0.569 | 16 | 0.783 | CC1(Cn2cc(-c3ccc(C(=O)NCc4ccn5ccnc5c4)s3)cn2)CCOCC1 [Example 576, N-(imidazo[1,2-a]pyridin-7-ylmethyl)-5-{1-[(4-methyltetrahydro-2H-pyran-4-yl)methyl]-1H-pyrazol-4-yl}thiophene-2-carboxamide]
10 | 50 | 170 | 0.817 | O=C(NCc1ccn2ccnc2c1)c1ccc(C2CN(C(=O)c3cccc(F)c3)C2)cc1 [Example 640, 4-[1-(3-fluorobenzoyl)azetidin-3-yl]-N-(imidazo[1,2-a]pyridin-7-ylmethyl)benzamide]
11 | 51.7 | 102 | 0.621 | O=C(CC1CCOCC1)Nc1ccc(NC(=O)NCc2ccc3nccn3c2)cc1 [Example 278, N-(4-{[(imidazo[1,2-a]pyridin-6-ylmethyl)carbamoyl]amino}phenyl)-2-(tetrahydro-2H-pyran-4-yl)acetamide]
12 | 62.2 | 150 | 0.27 | O=C(NCc1ccn2ccnc2c1)Nc1ccc(OC2CN(C(=O)CC3CC3)C2)cc1 [Example 427, 1-(4-{[1-(cyclopropylacetyl)azetidin-3-yl]oxy}phenyl)-3-(imidazo[1,2-a]pyridin-7-ylmethyl)urea]
13 | 187 | 9490 | 2.92 | O=C(NCc1ccc2nccn2c1)c1cnc(N(CC2CCOCC2)C(=O)C2CCOCC2)s1 [Example 144, N-(imidazo[1,2-a]pyridin-6-ylmethyl)-2-[(tetrahydro-2H-pyran-4-ylcarbonyl)(tetrahydro-2H-pyran-4-ylmethyl)amino]-1,3-thiazole-5-carboxamide]
14 | 18 | 245 | 0.407 | O=C(NCc1ccn2ccnc2c1)c1ccc(C2CCN(C(=O)c3ccc(F)cc3F)CC2)cc1 [Example 506, 4-[1-(2,4-difluorobenzoyl)piperidin-4-yl]-N-(imidazo[1,2-a]pyridin-7-ylmethyl)benzamide]
15 | 1170 | 494 | 0.449 | O=C(CC1CCCC1)Nc1ccc(C(=O)NCc2ccn3ccnc3c2)cc1F [Example 305, 4-[(cyclopentylacetyl)amino]-3-fluoro-N-(imidazo[1,2-a]pyridin-7-ylmethyl)benzamide]
16 | 32.3 | 270 | 0.698 | CC1(C(=O)N2CC(c3ccc(C(=O)NCc4ccn5ccnc5c4)cc3)C2)CC1 [Example 632, N-(imidazo[1,2-a]pyridin-7-ylmethyl)-4-{1-[(1-methylcyclopropyl)carbonyl]azetidin-3-yl}benzamide]

Second part, the compound before the results:

Row | SMILES | IC50 (PC3 cells) [nM] | IC50 [1] [nM] | IC50 (NAMPT) [nM]
17 | N#Cc1cccc(C(=O)N2CC(c3ccc(C(=O)NCc4ccn5ccnc5c4)cc3)C2)c1 [Example 653, 4-[1-(3-cyanobenzoyl)azetidin-3-yl]-N-(imidazo[1,2-a]pyridin-7-ylmethyl)benzamide] | 715 | 831 | 0.893
18 | O=C(CCC(F)(F)F)Nc1ccc(NC(=O)Nc2ccc3nccn3c2)cc1 [Example 45, 4,4,4-trifluoro-N-{4-[(imidazo[1,2-a]pyridin-6-ylcarbamoyl)amino]phenyl}butanamide] | 2070 | 879 | 1.19
19 | O=C(NCc1ccn2ccnc2c1)c1cnc(N2C(=O)CC[C@H]2CO)s1 [Example 244, 2-[(2S)-2-(hydroxymethyl)-5-oxopyrrolidin-1-yl]-N-(imidazo[1,2-a]pyridin-7-ylmethyl)-1,3-thiazole-5-carboxamide] | 7040 | > 10000 | 1.69
20 | O=C(NCc1ccc2nccn2c1)c1ccc(C2=CCN(C(=O)CC3CCCO3)CC2)cc1 (stereo not drawn) [Example 95, N-(imidazo[1,2-a]pyridin-6-ylmethyl)-4-[1-(tetrahydrofuran-2-ylacetyl)-1,2,3,6-tetrahydropyridin-4-yl]benzamide] | 10.6 | 201 | 0.991
21 | CC(C)(C)OC(=O)N1CCC(O)(c2ccc(C(=O)NCc3ccn4ccnc4c3)s2)CC1 [Example 403, tert-butyl 4-hydroxy-4-{5-[(imidazo[1,2-a]pyridin-7-ylmethyl)carbamoyl]thiophen-2-yl}piperidine-1-carboxylate] | 54.5 | 1550 | 0.847
22 | O=C(NCc1ccc2nccn2c1)c1ccc(C(=O)NC[C@@H]2CCOC2)cc1 [Example 359, N-(imidazo[1,2-a]pyridin-6-ylmethyl)-N′-[(3S)-tetrahydrofuran-3-ylmethyl]benzene-1,4-dicarboxamide] | 8770 | > 10000 | 2.5
23 | COCCNC(=O)N(CC1CCOC1)c1ncc(C(=O)NCc2ccc3nccn3c2)s1 (stereo not drawn) [Example 141, N-(imidazo[1,2-a]pyridin-6-ylmethyl)-2-{[(2-methoxyethyl)carbamoyl](tetrahydrofuran-3-ylmethyl)amino}-1,3-thiazole-5-carboxamide] | 77.8 | 2110 | 0.757
24 | Cc1ncc(CC(=O)N(CC2CCCO2)c2ncc(C(=O)NCc3ccc4nccn4c3)s2)s1 (stereo not drawn) [Example 123, N-(imidazo[1,2-a]pyridin-6-ylmethyl)-2-{[(2-methyl-1,3-thiazol-5-yl)acetyl](tetrahydrofuran-2-ylmethyl)amino}-1,3-thiazole-5-carboxamide] | 7.43 | 133 | 2.57
25 | CC1(Cn2cc(-c3ccc(C(=O)NCc4ccn5ccnc5c4)s3)cn2)COC1 [Example 254, N-(imidazo[1,2-a]pyridin-7-ylmethyl)-5-{1-[(3-methyloxetan-3-yl)methyl]-1H-pyrazol-4-yl}thiophene-2-carboxamide] | 0.938 | 31.3 | 0.306
26 | CC(C)Cn1cc(-c2ccc(C(=O)NCc3cn4ccnc4cn3)s2)cn1 [Example 754, N-(imidazo[1,2-a]pyrazin-6-ylmethyl)-5-[1-(2-methylpropyl)-1H-pyrazol-4-yl]thiophene-2-carboxamide] | 1.25 | 4.92 | 0.51
27 | CC(C)(O)CNC(=O)c1ccc(NC(=O)Nc2ccc3nccn3c2)cc1 [Example 13, N-(2-hydroxy-2-methylpropyl)-4-[(imidazo[1,2-a]pyridin-6-ylcarbamoyl)amino]benzamide] | 1170 | 653 | 0.663
28 | CC(C)(C)OC(=O)Nc1ccc(C(=O)NCc2ccn3ccnc3c2)cc1F [Example 292, tert-butyl {2-fluoro-4-[(imidazo[1,2-a]pyridin-7-ylmethyl)carbamoyl]phenyl}carbamate] | 7220 | 1540 | 1.15
